Data set [1] has as its target T1, Cytochrome P450 11B2, mitochondrial (Homo sapiens, UniProt P19099).
T1 sequence (P19099 whole entry): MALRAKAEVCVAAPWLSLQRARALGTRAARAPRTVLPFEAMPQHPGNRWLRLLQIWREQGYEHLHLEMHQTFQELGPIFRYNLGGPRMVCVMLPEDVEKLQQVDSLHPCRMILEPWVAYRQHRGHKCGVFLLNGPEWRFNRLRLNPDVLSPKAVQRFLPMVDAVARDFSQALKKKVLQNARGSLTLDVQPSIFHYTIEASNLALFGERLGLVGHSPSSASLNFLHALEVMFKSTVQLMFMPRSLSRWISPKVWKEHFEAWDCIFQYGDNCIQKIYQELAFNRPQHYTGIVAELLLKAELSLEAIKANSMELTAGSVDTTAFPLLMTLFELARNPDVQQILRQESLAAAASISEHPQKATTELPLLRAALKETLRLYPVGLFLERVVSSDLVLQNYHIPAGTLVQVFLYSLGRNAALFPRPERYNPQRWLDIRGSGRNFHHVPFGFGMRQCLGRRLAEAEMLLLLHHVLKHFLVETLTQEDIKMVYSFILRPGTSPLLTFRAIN
In words: Inhibition of human CYP11B2 expressed in hamster V79 MZh cells at 500 nM. The class given is cell-based. The following applies: V79MZh.

The target of another data set is T2, CYP19 (aromatase) (Homo sapiens, UniProt P11511).
T2 sequence (P11511 whole entry): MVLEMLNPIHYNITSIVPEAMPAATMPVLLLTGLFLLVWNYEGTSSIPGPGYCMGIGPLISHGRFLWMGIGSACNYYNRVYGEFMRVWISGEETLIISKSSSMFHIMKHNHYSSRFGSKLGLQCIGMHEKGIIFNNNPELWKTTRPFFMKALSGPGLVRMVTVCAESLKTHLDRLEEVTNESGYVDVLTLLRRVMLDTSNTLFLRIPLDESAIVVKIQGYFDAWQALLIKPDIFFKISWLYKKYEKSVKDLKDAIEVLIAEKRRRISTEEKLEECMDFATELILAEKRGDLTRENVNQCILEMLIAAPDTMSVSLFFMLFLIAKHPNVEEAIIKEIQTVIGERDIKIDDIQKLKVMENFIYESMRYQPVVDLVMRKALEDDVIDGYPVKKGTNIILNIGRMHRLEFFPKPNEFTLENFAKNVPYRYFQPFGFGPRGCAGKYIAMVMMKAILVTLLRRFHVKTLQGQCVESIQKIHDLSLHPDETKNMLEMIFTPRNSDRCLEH
In words: Inhibition of human placental CYP19 at 500 nM. Type of data set: functional.

In another data set the target is T3, CYP1A2 (Homo sapiens, UniProt P05177).
T3 sequence (P05177 whole entry): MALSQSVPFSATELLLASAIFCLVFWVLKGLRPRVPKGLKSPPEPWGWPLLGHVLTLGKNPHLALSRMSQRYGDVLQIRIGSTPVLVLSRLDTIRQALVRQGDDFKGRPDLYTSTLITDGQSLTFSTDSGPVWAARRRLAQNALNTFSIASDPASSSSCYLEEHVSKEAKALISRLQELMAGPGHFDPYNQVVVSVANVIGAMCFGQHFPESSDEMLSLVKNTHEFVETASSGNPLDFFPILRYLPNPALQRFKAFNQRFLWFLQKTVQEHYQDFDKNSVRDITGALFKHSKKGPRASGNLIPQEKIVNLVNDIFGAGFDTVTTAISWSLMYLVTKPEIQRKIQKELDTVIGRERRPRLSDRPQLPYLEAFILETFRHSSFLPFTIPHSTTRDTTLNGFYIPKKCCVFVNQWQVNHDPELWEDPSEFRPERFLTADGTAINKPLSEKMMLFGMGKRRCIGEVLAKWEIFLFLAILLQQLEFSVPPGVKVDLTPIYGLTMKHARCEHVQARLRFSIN
In words: Inhibition of human recombinant CYP1A2 expressed in baculovirus-infected insect microsomes at 2 uM. Type of data set: ADME, Microsome.

For another data set, the target named is Cytochrome P450 2C9 (Homo sapiens, UniProt P11712). In words: Inhibition of human recombinant CYP2C9 expressed in baculovirus-infected insect microsomes. The class given is ADME, Microsome.
In the next data set the target is Cytochrome P450 2C19 (Homo sapiens, UniProt P33261). In words: Inhibition of human recombinant CYP2C19 expressed in baculovirus-infected insect microsomes. The following applies: read-out: IC50. Type of data set: ADME, Microsome.
The next data set addresses Cytochrome P450 2D6 (Homo sapiens, UniProt P10635). In words: Inhibition of human recombinant CYP2D6 expressed in baculovirus-infected insect microsomes. The class given is ADME, Microsome.
A further data set deals with Cytochrome P450 3A4 (Homo sapiens, UniProt P08684). In words: Inhibition of human recombinant CYP3A4 expressed in baculovirus-infected insect microsomes. Type of data set: ADME, Microsome.
Data set [2] has as its target T1, Cytochrome P450 11B2, mitochondrial.
For another data set, the target named is T4, Cytochrome P450 1A2 (Homo sapiens, UniProt P05177).
T4 sequence (P05177 whole entry): T3 sequence (P05177 whole entry)

In a further data set the target is T5, CYP17 (Homo sapiens, UniProt P05093).
T5 sequence (P05093 whole entry): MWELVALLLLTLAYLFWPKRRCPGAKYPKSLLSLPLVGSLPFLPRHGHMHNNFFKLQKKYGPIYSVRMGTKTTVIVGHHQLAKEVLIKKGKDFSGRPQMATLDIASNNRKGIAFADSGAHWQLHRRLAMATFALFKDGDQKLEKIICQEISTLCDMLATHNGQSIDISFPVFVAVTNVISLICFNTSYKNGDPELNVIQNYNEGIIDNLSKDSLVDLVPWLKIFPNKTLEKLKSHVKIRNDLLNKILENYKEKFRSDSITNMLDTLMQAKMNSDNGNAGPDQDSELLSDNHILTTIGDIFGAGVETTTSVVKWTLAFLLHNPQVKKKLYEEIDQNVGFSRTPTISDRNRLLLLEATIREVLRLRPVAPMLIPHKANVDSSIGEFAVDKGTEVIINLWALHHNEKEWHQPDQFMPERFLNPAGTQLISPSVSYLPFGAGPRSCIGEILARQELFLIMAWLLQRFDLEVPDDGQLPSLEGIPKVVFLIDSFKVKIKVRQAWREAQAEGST
In words: in vitro. As to conditions: human CYP17 expressed in Escherichia coli.

A further data set is filed under the species Homo sapiens. In words: Selectivity ratio, IC50 for human CYP11B1 to IC50 for human CYP11B2.

This passage reports inhibition, IC50 and Ratio IC50 results from ChEMBL document CHEMBL1151717, “In vivo active aldosterone synthase inhibitors with improved selectivity: lead optimization providing a series of pyridine substituted 3,4-dihydro-1H-quinolin-2-one derivatives” (J Med Chem, 2008).

Chain of Cytochrome P450 2D6 (P10635 whole entry): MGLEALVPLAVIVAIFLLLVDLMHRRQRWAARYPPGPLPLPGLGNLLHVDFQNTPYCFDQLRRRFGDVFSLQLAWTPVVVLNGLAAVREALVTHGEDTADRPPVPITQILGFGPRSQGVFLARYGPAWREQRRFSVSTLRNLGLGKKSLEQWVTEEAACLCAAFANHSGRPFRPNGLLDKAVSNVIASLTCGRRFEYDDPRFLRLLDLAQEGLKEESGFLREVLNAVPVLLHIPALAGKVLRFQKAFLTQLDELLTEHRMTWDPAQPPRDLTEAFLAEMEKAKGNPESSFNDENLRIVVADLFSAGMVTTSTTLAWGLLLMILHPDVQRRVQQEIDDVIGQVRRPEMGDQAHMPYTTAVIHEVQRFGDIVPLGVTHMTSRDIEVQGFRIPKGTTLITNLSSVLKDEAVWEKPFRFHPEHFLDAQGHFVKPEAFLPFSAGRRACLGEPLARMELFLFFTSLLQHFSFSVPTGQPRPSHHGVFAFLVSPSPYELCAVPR
Chain of Cytochrome P450 2C19 (P33261 whole entry): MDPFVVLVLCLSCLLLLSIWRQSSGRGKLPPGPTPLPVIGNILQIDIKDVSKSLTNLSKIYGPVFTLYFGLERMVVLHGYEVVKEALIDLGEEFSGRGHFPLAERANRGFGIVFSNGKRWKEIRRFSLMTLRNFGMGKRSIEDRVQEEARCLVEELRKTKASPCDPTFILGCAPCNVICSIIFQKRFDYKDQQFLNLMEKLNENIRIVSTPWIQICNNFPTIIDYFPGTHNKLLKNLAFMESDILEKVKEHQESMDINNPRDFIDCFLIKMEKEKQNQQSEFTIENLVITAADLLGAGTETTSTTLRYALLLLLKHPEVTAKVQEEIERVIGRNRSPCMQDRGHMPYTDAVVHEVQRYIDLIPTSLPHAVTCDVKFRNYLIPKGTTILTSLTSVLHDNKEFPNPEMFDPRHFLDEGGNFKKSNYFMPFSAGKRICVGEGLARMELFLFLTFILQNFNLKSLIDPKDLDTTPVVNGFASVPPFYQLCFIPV
Chain of Cytochrome P450 2C9 (P11712 whole entry): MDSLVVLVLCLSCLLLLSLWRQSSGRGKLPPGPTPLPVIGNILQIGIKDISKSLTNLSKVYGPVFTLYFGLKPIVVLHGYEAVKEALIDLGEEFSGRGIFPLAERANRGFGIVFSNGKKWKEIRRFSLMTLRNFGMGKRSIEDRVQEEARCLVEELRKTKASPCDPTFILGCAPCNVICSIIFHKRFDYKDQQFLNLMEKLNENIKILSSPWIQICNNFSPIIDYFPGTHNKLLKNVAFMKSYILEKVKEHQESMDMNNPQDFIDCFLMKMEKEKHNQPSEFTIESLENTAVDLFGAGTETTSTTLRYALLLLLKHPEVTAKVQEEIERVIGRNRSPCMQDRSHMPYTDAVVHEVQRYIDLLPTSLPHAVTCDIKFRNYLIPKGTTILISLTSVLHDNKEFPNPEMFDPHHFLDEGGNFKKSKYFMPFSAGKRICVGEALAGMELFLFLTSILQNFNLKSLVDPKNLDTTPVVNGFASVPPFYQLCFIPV
Chain of Cytochrome P450 3A4 (P08684 whole entry): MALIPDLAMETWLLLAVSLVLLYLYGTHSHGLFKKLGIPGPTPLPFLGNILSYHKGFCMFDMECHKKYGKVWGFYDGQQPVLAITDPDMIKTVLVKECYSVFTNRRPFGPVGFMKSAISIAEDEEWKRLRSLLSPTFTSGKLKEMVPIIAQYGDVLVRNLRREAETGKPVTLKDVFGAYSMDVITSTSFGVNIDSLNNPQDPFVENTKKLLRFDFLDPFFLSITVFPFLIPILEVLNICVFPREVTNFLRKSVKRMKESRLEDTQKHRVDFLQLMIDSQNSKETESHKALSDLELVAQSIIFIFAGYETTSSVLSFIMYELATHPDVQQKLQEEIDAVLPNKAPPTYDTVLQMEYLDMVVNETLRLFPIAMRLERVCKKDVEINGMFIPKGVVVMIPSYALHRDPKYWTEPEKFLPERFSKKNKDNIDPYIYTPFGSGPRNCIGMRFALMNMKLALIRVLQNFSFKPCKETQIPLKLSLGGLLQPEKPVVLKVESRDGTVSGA
Description for CYP17: Inhibition of human CYP17 expressed in Escherichia coli at 2.5 uM

Take `O=C1CCc2cc(-c3cncc4ccccc34)ccc2N1`: the inhibition (in general, the percentage by which the read-out fell short of the control) at 0.5 µM in data set [1] is 94%; on CYP19 (aromatase), under 5%. On CYP1A2, the inhibition at 2 µM is under 5%. For the same compound, the IC50 (as a rule, the concentration at which inhibition is half-maximal) on Cytochrome P450 2C9 is 2.9 µM; at Cytochrome P450 2C19, 9.2 µM; at Cytochrome P450 2D6 (read-out: IC50), under 50 µM; at Cytochrome P450 3A4 it was under 50 µM; in [2] it was 0.0002 µM; against Cytochrome P450 1A2, over 150 µM. This compound also yielded an inhibition at 2.5 µM against CYP17 of 22%. Moreover, in the data set filed under Homo sapiens, the Ratio IC50 came to 187.
For the compound `O=C1CCc2cc(-c3cccnc3)ccc2C1`, the inhibition at 0.5 µM stood at 97% in data set [1] and 31% against CYP19 (aromatase). On CYP1A2, the inhibition at 2 µM is 60%. Moreover, the IC50 turned out to be 28.3 µM on Cytochrome P450 2C9; 41.5 µM at Cytochrome P450 2C19; 171 µM on Cytochrome P450 2D6 (read-out: IC50); 6.21 µM at Cytochrome P450 3A4; 0.0078 µM in data set [2]; 1.55 µM against Cytochrome P450 1A2. The inhibition at 2.5 µM against CYP17 turned out to be 20%. Moreover, the Ratio IC50 in the data set filed under Homo sapiens stood at 496.
As to `COc1cncc(-c2ccc3c(c2)CCC(=O)C3)c1`, the values for the inhibition at 0.5 µM (in data set [1]; at CYP19 (aromatase)) were 94% and 58%, respectively. Besides, on CYP1A2, the inhibition at 2 µM came to 57%. Moreover, the IC50 at Cytochrome P450 2C9 is 12.9 µM; at Cytochrome P450 2C19 it was 45.4 µM; at Cytochrome P450 2D6, under 200 µM; on Cytochrome P450 3A4, 3.8 µM; in [2], 0.0018 µM; at Cytochrome P450 1A2, 1.56 µM. Besides, at CYP17, the inhibition at 2.5 µM was found to be 21%. In addition, the Ratio IC50 in the data set filed under Homo sapiens was 106.
